One series relates to fungal dermatitis. Briefly: double-blind, randomized, placebo and haloperidol-controlled clinical trial. It counts as in vivo. Particulars: human, 15±2.5 mg/day vs haloperidol (15±5 mg/day), double-blind extension treatment phase. As for the experimental part:
Such effectiveness for the treatment, amelioration of fungal dermatitis was shown in the following clinical trial:
The study was a double-blind, randomized, parallel, placebo and haloperidol-controlled study of 55 human subjects. The study was conducted in 23 study centers throughout the United States and Canada. […] The acute phase lasted for 6 weeks with evaluations performed weekly followed by a double-blind extension phase of at least one year.

Series [1] can be described thus: detection of radiolabelled compound in saliva. It counts as in vivo. How it is done:
For example, in the treatment of adult humans, dosages of from about 5 to 20 mg per day may be used. A once a day dosage is normally sufficient, although divided doses may be administered. For treatment of fungal dermatitis in a human, a dose range of from about […], preferably 5 to 20 mg per day is suitable.

In series [2] the test system is apomorphine-induced climbing behavior and hypothermia. Conditions: mice; cited from earlier work.
The test system of series [3] is conditioned avoidance response. Particulars: rats; cited from earlier work.

Take `Cc1cc2c(s1)Nc1ccccc1N=C2N1CCN(C)CC1` [2-methyl-4-(4-methyl-1-piperazinyl)-10H-thieno[2,3-b][1,5]benzodiazepine]: the “occurrence of fungal dermatitis versus haloperidol” value with fungal dermatitis is recorded as “statistically significantly less frequently”. The “detection in the saliva” value in series [1] is “can be detected in the saliva”. Moreover, in series [2], the apomorphine-induced climbing behavior result is “antagonized” and the apomorphine-induced hypothermia result was “antagonized”. Besides, the conditioned avoidance response entry in series [3] was “inhibits”.

These data come from patent US5744469A, “Method for treating dermatitis” (Eli Lilly and Company, priority 1996, dated 1998).
